Source: patent publication US11185531B2, “Arginine methyltransferase inhibitors and uses thereof” (Epizyme, Inc., priority 2013, dated 2021)

Assays:
human PRMT1 = molecular target: T1, human PRMT1 (Homo sapiens, UniProt Q99873); test: PRMT1 Biochemical Assay (3H-SAM Flashplate, peptide substrate); settings: 30 min preincubation
T1 construct: GST-tagged PRMT1; made in house; host or cells: High Five insect cells (baculovirus)
From the text: (§1) Peptide representative of human histone H4 residues 36-50 was synthesized with an N-terminal linker-affinity tag motif and a C-terminal amide cap by 21st Century Biochemicals. The peptide was purified by high-performance liquid chromatography (HPLC) to greater than 95% purity and confirmed by liquid chromatography mass spectrometry (LC-MS). The sequence was Biot-Ahx-[…]-amide (SEQ ID NO.: 1).
Full-length human PRMT1 isoform 1 (NM_001536.5) transcript clone was amplified from an HEK 293 cDNA library, incorporating flanking 5′ sequence encoding a FLAG tag ([…]) (SEQ ID NO:2) fused directly to Met 1 of PRMT1. The amplified gene was subcloned into pFastBacI (Life Technologies) modified to encode an N-terminal GST tag and a TEV cleavage sequence
GST-tagged PRMT1 was eluted with 50 mM Tris, 2 mM glutathione, pH 7.8, dialysed in buffer A and concentrated to 1 mg/mL. The purity of recovered protein was 73%. Reference: Wasilko, D. J. and S. E. Lee: “TIPS: titerless infected-cells preservation and scale-up” Bioprocess J., 5 (2006), pp. 29-32.
General Procedure for PRMT1 Enzyme Assays on Peptide Substrates.
The assays were all performed in a buffer consisting of 20 mM Bicine (pH=7.6), 1 mM TCEP, 0.005% BSG, and 0.002% Tween 20, prepared on the day of use. Compounds in 100% DMSO (1 ul) were spotted into a polypropylene 384-well V-bottom plates (Greiner) using a Platemate Plus outfitted with a 384-channel head (Thermo Scientific). DMSO (1 ul) was added to Columns 11, 12, 23, 24, rows A-H for the maximum signal control and 1 ul of SAH, a known product and inhibitor of PRMT1, was added to columns 11, 12, 23, 24, rows I-P for the minimum signal control. A cocktail (40 ul) containing the PRMT1 enzyme was added by Multidrop Combi (Thermo-Fisher). The compounds were allowed to incubate with PRMT1 for 30 min at room temperature, then a cocktail (10 ul) containing SAM and peptide was added to initiate the reaction (final volume=51 ul). The final concentrations of the components were as follows: PRMT1 was 0.5 nM, ^3H-SAM was 200 nM, non-radiolabeled SAM was 1.5 uM, peptide was 20 nM, SAH in the minimum signal control wells was 1 mM, and the DMSO concentration was 2%. The assays were stopped by the addition of non-radiolabeled SAM (10 ul) to a final concentration of 300 uM, which dilutes the ^3H-SAM to a level where its incorporation into the peptide substrate is no longer detectable. 50 ul of the reaction in the 384-well polypropylene plate was then transferred to a 384-well Flashplate and the biotinylated peptides were allowed to bind to the streptavidin surface for at least 1 hour before being washed once with 0.1% Tween20 in a Biotek ELx405 plate washer. The plates were then read in a PerkinElmer TopCount plate reader to measure the quantity of ^3H-labeled peptide bound to the Flashplate surface, measured as disintegrations per minute (dpm) or alternatively, referred to as counts per minute (cpm).
(§2) Where dpm=disintegrations per minute, cmpd=signal in assay well, and min and max are the respective minimum and maximum signal controls.
(§3) Where top and bottom are the normally allowed to float, but may be fixed at 100 or 0 respectively in a 3-parameter fit. The Hill Coefficient normally allowed to float but may also be fixed at 1 in a 3-parameter fit. Y is the % inhibition and X is the compound concentration.

human PRMT3 = molecular target: T2, human PRMT3 (Homo sapiens, UniProt O60678); test: PRMT3 Biochemical Assay (3H-SAM Flashplate, peptide substrate); settings: 30 min preincubation
T2 construct: GST-tagged PRMT3; made in house; host or cells: E. coli BL21(DE3) Gold
T2 sequence (O60678 with tags, fused parts or gaps): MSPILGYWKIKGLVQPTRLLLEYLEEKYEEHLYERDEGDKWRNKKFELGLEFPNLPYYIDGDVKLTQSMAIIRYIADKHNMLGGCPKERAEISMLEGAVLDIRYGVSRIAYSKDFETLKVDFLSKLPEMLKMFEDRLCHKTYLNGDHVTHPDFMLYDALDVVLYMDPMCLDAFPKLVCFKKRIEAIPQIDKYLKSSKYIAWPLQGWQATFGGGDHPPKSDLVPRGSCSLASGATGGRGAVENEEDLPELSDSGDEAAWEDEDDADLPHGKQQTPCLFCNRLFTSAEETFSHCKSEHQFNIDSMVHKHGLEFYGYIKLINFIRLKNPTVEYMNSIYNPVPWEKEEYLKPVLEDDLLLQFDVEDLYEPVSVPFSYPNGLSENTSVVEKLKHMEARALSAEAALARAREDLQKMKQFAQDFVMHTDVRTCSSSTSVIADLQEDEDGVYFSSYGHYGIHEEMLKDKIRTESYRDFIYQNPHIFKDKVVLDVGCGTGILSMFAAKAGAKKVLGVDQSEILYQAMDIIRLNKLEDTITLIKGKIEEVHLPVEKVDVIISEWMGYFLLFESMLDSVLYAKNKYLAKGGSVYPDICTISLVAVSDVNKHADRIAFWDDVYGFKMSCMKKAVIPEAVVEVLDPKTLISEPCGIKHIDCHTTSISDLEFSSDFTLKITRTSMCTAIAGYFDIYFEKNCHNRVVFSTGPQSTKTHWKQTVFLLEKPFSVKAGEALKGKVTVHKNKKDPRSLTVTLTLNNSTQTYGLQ
From the text: as §1, with “containing the classic RMT substrate motif” for “representative of human histone H4 residues 36-50”, “NO:11).” for “NO.: 1).”
Full-length human PRMT3 (NM_005788.3) isoform 1 transcript clone was amplified from an HEK 293 cDNA library and subcloned into pGEX-KG (GE Life Sciences). The resulting construct encodes an N-terminal GST tag and a thrombin cleavage sequence
GST-tagged PRMT3 was eluted with 50 mM Tris, 2 mM glutathione, pH 7.1 and 50 mM Tris, 20 mM glutathione, pH 7.1. Pooled fractions were dialysed in 20 mM Tris, 50 mM NaCl, 5% glycerol, 1 mM EDTA, 1 mM DTT, pH7.5 (Buffer B) and applied to a Q Sepharose Fast Flow column. GST-tagged PRMT3 was eluted by 500 mM NaCl in buffer B. Pooled fractions were dialyzed in 25 mM phosphate buffer, 100 mM NaCl, 5% glycerol, 2 mM DTT, pH 6.8 (Buffer C) and loaded on to a ceramic hydroxyapatite column. GST-tagged PRMT3 eluted with 25-400 mM phosphate in buffer C. Protein was concentrated and buffer was exchanged to 20 mM Tris, 150 mM NaCl, 5% glycerol, 5 mM β-mercaptoethanol, pH7.8 by ultrafiltration. The purity of recovered protein was 70%.
General Procedure for PRMT3 Enzyme Assays on Peptide Substrates.
The assays were all performed in a buffer consisting of 20 mM Bicine (pH=7.6), 1 mM TCEP, 0.005% BSG, and 0.002% Tween 20, prepared on the day of use. Compounds in 100% DMSO (1 ul) were spotted into a polypropylene 384-well V-bottom plates (Greiner) using a Platemate Plus outfitted with a 384-channel head (Thermo Scientific). DMSO (1 ul) was added to Columns 11, 12, 23, 24, rows A-H for the maximum signal control and 1 ul of SAH, a known product and inhibitor of PRMT3, was added to columns 11, 12, 23, 24, rows I-P for the minimum signal control. A cocktail (40 ul) containing the PRMT3 enzyme was added by Multidrop Combi (Thermo-Fisher). The compounds were allowed to incubate with PRMT3 for 30 min at room temperature, then a cocktail (10 ul) containing SAM and peptide was added to initiate the reaction (final volume=51 ul). The final concentrations of the components were as follows: PRMT3 was 0.5 nM, ^3H-SAM was 100 nM, non-radiolabeled SAM was 1.8 uM, peptide was 330 nM, SAH in the minimum signal control wells was 1 mM, and the DMSO concentration was 2%. The assays were stopped by the addition of potassium chloride (10 ul) to a final concentration of 100 mM. 50 ul of the reaction in the 384-well polypropylene plate was then transferred to a 384-well Flashplate and the biotinylated peptides were allowed to bind to the streptavidin surface for at least 1 hour before being washed once with 0.1% Tween20 in a Biotek ELx405 plate washer. The plates were then read in a PerkinElmer TopCount plate reader to measure the quantity of ^3H-labeled peptide bound to the Flashplate surface, measured as disintegrations per minute (dpm) or alternatively, referred to as counts per minute (cpm).
as §2, §3

T1 sequence (Q99873 with tags, fused parts or gaps): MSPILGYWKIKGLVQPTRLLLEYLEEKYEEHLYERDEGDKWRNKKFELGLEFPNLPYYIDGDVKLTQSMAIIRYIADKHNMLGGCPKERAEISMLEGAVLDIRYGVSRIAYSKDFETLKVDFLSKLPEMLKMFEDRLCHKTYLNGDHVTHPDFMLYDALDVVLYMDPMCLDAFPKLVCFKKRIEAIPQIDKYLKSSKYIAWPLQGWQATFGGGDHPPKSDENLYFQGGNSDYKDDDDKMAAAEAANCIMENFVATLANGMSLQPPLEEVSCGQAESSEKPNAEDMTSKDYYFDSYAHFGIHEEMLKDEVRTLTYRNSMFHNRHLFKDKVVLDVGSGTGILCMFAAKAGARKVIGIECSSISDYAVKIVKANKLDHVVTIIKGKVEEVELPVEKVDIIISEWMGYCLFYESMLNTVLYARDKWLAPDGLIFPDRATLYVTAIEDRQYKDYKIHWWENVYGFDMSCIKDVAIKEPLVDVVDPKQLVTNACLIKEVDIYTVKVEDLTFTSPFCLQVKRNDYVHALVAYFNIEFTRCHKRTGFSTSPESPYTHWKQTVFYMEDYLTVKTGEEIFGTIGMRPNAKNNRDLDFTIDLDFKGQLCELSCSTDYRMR

SMILES	IC50 (human PRMT1) [nM]	IC50 (human PRMT3) [nM]
CNCCN(C)Cc1c[nH]nc1C1CCN(C(=O)Cc2ccccc2)CC1 [Compound 32]	101 to 1000	–
CC(C)Cc1n[nH]cc1CN(C)CCN [Compound 28, N^1-((3-iso-butyl-1H-pyrazol-4-yl)methyl)-N^1-methylethane-1,2-diamine]	101 to 1000	–
COc1cc(/C=C/c2n[nH]cc2CN(C)CCN)cc(OC)c1 [Compound 11]	< 100	1010 to 3000
CN(CCN)Cc1c[nH]nc1/C=C/c1cccc(F)c1 [Compound 20]	< 100	1010 to 3000
CN(CCN)Cc1n[nH]cc1C1CCCCC1 [Compound 33]	< 100	–
CN(CCN)Cc1n[nH]cc1C1CCC(N2CCOCC2)CC1 (stereo not shown) [Compound 44, N^1-methyl-N^1-((4-(4-morpholinocyclohexyl)-1H-pyrazol-3-yl)methyl)ethane-1,2-diamine]	1010 to 3000	–
CN(CCN)Cc1c[nH]nc1/C=C/c1cc(C(F)(F)F)cc(C(F)(F)F)c1 [Compound 14]	< 100	3010 to 10000
CC(C)c1n[nH]cc1CN(C)CCN [Compound 21]	1010 to 3000	–
CNCCN(C)Cc1c[nH]nc1C#Cc1ccc(F)cc1 [Compound 4]	< 100	–
CNCCN(C)Cc1c[nH]nc1C1CCN(C(=O)C(C)C)CC1 [Compound 34]	< 100	–
CN(CCN)Cc1c[nH]nc1/C=C/c1cccc(C(F)(F)F)c1 [Compound 16]	< 100	3010 to 10000
CNCCN(C)Cc1c[nH]nc1C1CCN(C)CC1 [Compound 41]	< 100	–
CC1CCC(c2c[nH]nc2CN(C)CCN)CC1 (stereo not shown) [Compound 35]	< 100	–
CN(CCN)Cc1c[nH]nc1/C=C/Cc1ccccc1 [Compound 24]	< 100	–
CN(CCN)Cc1n[nH]cc1C1CCC(C)(C)CC1 [Compound 36]	< 100	–
CN(CCN)Cc1c[nH]nc1C1CCC(C)(C)CC1 [Compound 38, N^1-((3-(4,4-dimethylcyclohexyl)-1H-pyrazol-4-yl)methyl)-N^1-methylethane-1,2-diamine]	< 100	–
CNCCN(C)Cc1c[nH]nc1C#Cc1cccc(OC)c1 [Compound 1]	< 100	3010 to 10000
COc1cccc(/C=C/c2n[nH]cc2CN(C)CCN)c1 [Compound 17]	< 100	1010 to 3000

SMILES	IC50 (human PRMT1) [nM]	IC50 (human PRMT3) [nM]
Cc1ccc(/C=C/c2n[nH]cc2CN(C)CCN)cc1 [Compound 8]	< 100	3010 to 10000
CNCCN(C)Cc1c[nH]nc1/C=C/c1ccc(-c2ccccc2)cc1 [Compound 5]	< 100	1010 to 3000
CN(CCN)Cc1c[nH]nc1C1CCCCC1 [Compound 22]	< 100	3010 to 10000
CNCCN(C)Cc1c[nH]nc1C#Cc1ccccc1 [Compound 3]	–	3010 to 10000
CCCc1n[nH]cc1CN(C)CCN [Compound 29]	101 to 1000	–
CN(CCN)Cc1c[nH]nc1/C=C/c1ccc(F)cc1F [Compound 13]	< 100	3010 to 10000
CN(CCN)Cc1c[nH]nc1/C=C/c1cc(F)cc(F)c1 [Compound 15]	< 100	1010 to 3000
COC/C=C/c1n[nH]cc1CN(C)CCN [Compound 19]	101 to 1000	3010 to 10000
CN(CCN)Cc1c[nH]nc1/C=C/c1ccc(C(F)(F)F)cc1 [Compound 18]	< 100	1010 to 3000
CN(CCN)Cc1c[nH]nc1C1=CCOCC1 [Compound 10]	101 to 1000	–
CN(CCN)Cc1c[nH]nc1C1=CCCC1 [Compound 25]	101 to 1000	–
CNCCN(C)Cc1c[nH]nc1C1CCNCC1 [Compound 42]	< 100	–
CNCCN(C)Cc1c[nH]nc1/C=C/c1ccc(C(F)(F)F)cc1 [Compound 6]	< 100	3010 to 10000
CNCCN(C)Cc1c[nH]nc1/C=C/c1ccc(OC)cc1 [Compound 7]	< 100	3010 to 10000
CC1CCC(c2n[nH]cc2CN(C)CCN)CC1 (stereo not shown) [Compound 37, N^1-methyl-N^1-((3-(4-methylcyclohexyl)-1H-pyrazol-4-yl)methyl)ethane-1,2-diamine]	< 100	–
CN(CCN)Cc1c[nH]nc1CCc1ccc(F)cc1 [Compound 23, N^1-((3-(4-fluorophenethyl)-1H-pyrazol-4-yl)methyl)-N^1-methylethane-1,2-diamine]	< 100	3010 to 10000
CNCCN(C)Cc1c[nH]nc1C#Cc1ccc(C(C)(C)C)cc1 [Compound 2]	< 100	1010 to 3000
